From US20150125915A1, “Method for Producing Lactic Acid” (Kao Corporation, priority 2012, published 2015)

Key:
[1] = tested on: Rhizopus oryzae JCM14625 strain (=NBRC 5384); experiment: Evaluation of ability to produce lactic acid-1 (production rate of lactic acid); format: cell-based; conditions: 0.5% (w/v) surfactant in PDB medium at spore germination; rate in the absence of the surfactant = 100
Method: Specifically, the mycelia of a fungus of the genus Rhizopus were prepared by the method of Production Example 2 using the surfactant and then grown by the method of Production Example 3. 6.0 g of the obtained wet fungus bodies of the genus Rhizopus was inoculated to 40 mL of an inorganic culture medium for lactic acid production evaluation (composition: 8.0% glucose, 0.1% ammonium sulfate, 0.06% potassium dihydrogen phosphate, 0.025% magnesium sulfate heptahydrate, 0.009% zinc sulfate heptahydrate, and 5.0% calcium carbonate; all the concentrations mean % (w/v)) applied to a 200-mL Erlenmeyer flask, and then cultured at 35° C. with stirring at 170 rpm. The supernatant of the culture medium was recovered every 2 hours from 30 minutes after the fungus body inoculation. Glucose and lactic acid were quantified by the procedures described later in Reference Example 1. A relative value of the production rate of lactic acid was determined on the basis of the calculation method described in Reference Example 2.
Glucose and lactic acid were quantified using an HPLC apparatus LaChrom Elite (manufactured by Hitachi High-Technologies Corp.). The analytical column used was a carbohydrate/organic acid analysis column HPX-87H (7.8 mm I.D.×30 cm, manufactured by Bio-Rad Laboratories, Inc.) connected with a guard column Cation H (4.6 mm I.D.×3.0 cm, manufactured by Bio-Rad Laboratories, Inc.). Elution was performed under conditions involving 10 mM sulfuric acid as an eluent, a flow rate of 0.85 mL/min, and a column temperature of 50° C. Glucose and lactic acid were detected using a differential refractive index detector (RI detector) and a UV detector (detection wavelength: 210 nm), respectively. The standard samples used were glucose (distributor code: 049-31165, manufactured by Wako Pure Chemical Industries Ltd.), and lithium L-lactate (product number: L2250, manufactured by Sigma-Aldrich Inc.). Quantification was performed on the basis of concentration calibration curves prepared using these standard samples.
The supernatant sample of each culture medium to be subjected to HPLC analysis was appropriately diluted in advance with 37 mM sulfuric acid and then applied to DISMIC-13cp (0.20 μm cellulose acetate membrane, manufactured by […] Group) or MULTI SCREEN MNHV45 (0.45 μm Durapore membrane, manufactured by EMD Millipore) to remove insoluble matter.
The concentration of lactic acid (unit: g of lactic acid/L of medium) in the supernatant sample of each culture medium was measured according to Reference Example 1 and divided by a time (unit: hr) required for change in lactic acid concentration to calculate the production rate of lactic acid per unit time (unit: g of lactic acid/L/hr). In addition, a relative value to the production rate of lactic acid under control conditions in each Production Example was determined.

[2] = Evaluation of foaming property by the inversion stirring method; format: physicochemical; conditions: for Volume of foam relative to the volume of foam in the absence of the surfactant (in words): 0.5% (w/v) in PDB medium; for Volume of foam (relative value): 0.5% (w/v) surfactant in PDB medium, 30 seconds after stirring, foam in the absence of the surfactant = 100
Method: Each surfactant used in Test Example 2 was evaluated for its foaming properties by the inversion stirring method. 100 mL of a PDB medium non-supplemented or supplemented with 0.5% (w/v) (final concentration) of a surfactant was added to a graduated cylindrical container of 50 mm in diameter and then inversion-stirred for 300 seconds using a flat propeller while the propeller was inverted every 6 seconds at 1000 rpm. 30 seconds after the completion of stirring, the volume of foam in the medium was measured.

[3] = tested on: Rhizopus oryzae JCM14625 strain (=NBRC 5384); experiment: LDH activity evaluation-1: mycelia prepared from spores in surfactant-supplemented PDB medium, LDH activity of fungus body extract; format: cell-based; conditions: for LDH activity compared with control fungus bodies (in words): 0.5% (w/v) surfactant at spore germination, versus medium non-supplemented with the surfactant; for LDH activity (relative value): 0.5% (w/v) surfactant in PDB medium at spore germination, LDH activity in the absence of the surfactant = 100
Method: A loopful of a cryopreserved spore suspension sample (−80° C.) of a Rhizopus oryzae JCM14625 strain (=NBRC 5384) obtained from a culture collection Riken BioResource Center (BRC) was inoculated to a PDA medium (Difco Potato Dextrose Agar, manufactured by Becton, Dickinson and Company) and then statically cultured at 30° C. for from 7 to 10 days. After visual confirmation of hyphal growth and blackening at the ends of hyphae associated with sporulation, from 30 to 40 mL of saline was added thereto. Spores, together with hyphae, were collected into a 50-mL centrifugal tube with a lid (manufactured by Greiner bio-one) using a platinum loop and then vigorously mixed in the tube. The spore suspension thus mixed was filtered through 3GP100 cylindrical funnel-shaped glass filter (manufactured by Shibata Scientific Technology Ltd.). The resulting filtrate was used as a spore solution. The number of spores in the spore solution was measured using a hemocytometer (D=1/50 mm· 1/400 mm^2) after appropriate dilution with saline.
80 mL of a PDB medium non-supplemented or supplemented with 0.5% (w/v) (final concentration) of each surfactant described below was applied to a 200-mL baffled Erlenmeyer flask (manufactured by Asahi Glass Co., Ltd.). The Rhizopus oryzae spore suspension prepared in Production Example 1 was inoculated thereto at a dose of 1×10^3 spores/mL of the medium and then cultured at 27° C. for 3 days with stirring at 170 rpm. Since mycelia would remain on the filter, the cultures were filtered through a stainless sieve of 250 μm in mesh size (manufactured by AS ONE Corp.) sterilized in advance to recover fungus bodies onto the filter.
From3.0 to 4.0 g (wet weight) of the recovered fungus bodies was inoculated to 100 mL of an inorganic culture medium (composition: 10% glucose, 0.1% ammonium sulfate, 0.06% potassium dihydrogen phosphate, 0.025% magnesium sulfate heptahydrate, 0.009% zinc sulfate heptahydrate, and 5.0% calcium carbonate; all the concentrations mean % (w/v)) applied to a 500-mL Erlenmeyer flask, and then cultured at 27° C. for approximately 40 hours with stirring at 220 rpm. Subsequently, the cultures thus obtained by culture in the inorganic culture medium were filtered using a stainless screen filter holder (manufactured by EMD Millipore) sterilized in advance to recover fungus bodies onto the filter. On this filter holder, the fungus bodies were further washed with 100 mL of saline. The saline used in washing was removed by suction filtration. The obtained fungus bodies were used in the following LDH activity evaluation and evaluation of the ability to fermentatively produce lactic acid.
6.0 g of the wet fungus bodies of the genus Rhizopus obtained in Production Example 3 was inoculated to 40 mL of an inorganic culture medium for lactic acid production evaluation (composition: 8.0% glucose, 0.1% ammonium sulfate, 0.06% potassium dihydrogen phosphate, 0.025% magnesium sulfate heptahydrate, 0.009% zinc sulfate heptahydrate, and 5.0% calcium carbonate; all the concentrations mean % (w/v)) applied to a 200-mL Erlenmeyer flask, and then cultured at 35° C. with stirring at 170 rpm. After 4.5-hour culture of the fungus bodies of the genus Rhizopus with stirring, the fungus bodies were filtered using a stainless screen filter holder (manufactured by EMD Millipore) sterilized in advance to recover fungus bodies onto the filter. On this filter holder, the fungus bodies were further washed with 100 mL of saline. The saline used in washing was removed by suction filtration. 0.3 g of the obtained fungus bodies was recovered into a 3-mL disruption tube (manufactured by Yasui Kikai Corp.). Metal cone for 3 mL (manufactured by Yasui Kikai Corp.) was added to the tube, which was then capped and then frozen in liquid nitrogen. The frozen 3-mL disruption tube was applied to Multi-Beads Shocker (manufactured by Yasui Kikai Corp.). The fungus bodies were disrupted at 1700 rpm for 10 seconds.

Substance	Production rate of lactic acid (relative value) [1]	Volume of foam relative to the volume of foam in the absence of the surfactant (in words) [2]	Volume of foam (relative value) [2]	LDH activity compared with control fungus bodies (in words) [3]	LDH activity (relative value) [3]
Sorbitan monooleate	113 relative value	twice or less	100 relative value	higher LDH activity	135 relative value
Polyoxyethylene (10) octyl phenyl ether	254 relative value	–	2000 relative value	higher LDH activity	178 relative value
Sodium deoxycholate	–	–	–	higher LDH activity	109 relative value
Polyoxyethylene (20) sorbitan monolaurate	137 relative value	–	1350 relative value	–	148 relative value
Polyoxyethylene (4) lauryl ether	171 relative value	–	350 relative value	–	214 relative value
Polyoxyethylene (6) lauryl ether	–	–	–	slightly lower LDH activity	93 relative value
Polyoxyethylene (5) lauryl ether	–	–	–	–	112 relative value
Polyoxyethylene (3) lauryl ether	203 relative value	–	250 relative value	–	170 relative value
Polyoxyethylene (4) sorbitan monolaurate	142 relative value	twice or less	150 relative value	–	140 relative value
